Laboratory results from patent US11571407B2, “Bicalutamide analogs or (S)-bicalutamide as exocytosis activating compounds for use in the treatment of a lysosomal storage disorder or glycogenosis” (BCN PEPTIDES, S.A., priority 2013, dated 2023).
Marks after values point to notes of the source that are not given here.

Assays:
[1] = system: fibroblasts from patients affected by different lysosomal storage diseases; assay: Determination of glycosaminoglycans (GAGs), 1,9-dimethylmethylene blue (DMB) assay; type: cell-based, human; conditions: vs untreated
Protocol: (§1) Fibroblasts from thirteen patients affected by seven different lysosomal storage diseases (Fabry, Gaucher, Hurler, Niemann-Pick type A/B, Sanfilippo A, Sanfilippo B and Tay-Sachs) were cultured in DMEM (Dulbecco's modified Eagles medium) with 10% fetal bovine serum and in the presence of antibiotics (penicillin and streptomycin), at 37° C. with 5% CO2. All reagents were purchased from PAA Laboratories (Velizy-Villacoublay, France). The fibroblasts of the patients were selected on the basis of availability of fibroblasts and measurable residual activity. The use of human samples was approved by the Ethical Committee of Hospital Clinic, Barcelona
Glycobiology. […] The fibroblasts were cultured in triplicate in 6-well plates and they were harvested 72 hours after treatment. DMB absorbance was measured in duplicate at 656 nm with a microplate reader (POLARstar Omega, BMG LABTECH, Offenburg, Germany).
Fibroblasts from three patients affected by Sanfilippo B disease and one patient affected by Hurler disease were treated with increasing concentrations of bicalutamide (racemic mixture at increasing concentrations of 0.01, 0.1, 1, 10 and 100 μM). Glycosaminoglycans (GAGs) levels were quantified with the 1,9-dimethylmethylene blue (DMB) assay.
Fibroblasts from seven patients affected by different diseases derived from lysosomal storage (three Sanfilippo B disease patients with different genotypes, one Sanfilippo A disease patient, one Tay-Sachs disease patient, one Niemann-Pick type A/B disease patient and one Hurler disease patient) were independently treated with different concentrations of (R)- and (S)-bicalutamide (50 and 100 μM).

[2] = system: fibroblasts from patients affected by different lysosomal storage diseases; assay: Determination of lysosomal exocytosis (β-hexosaminidase activity in the culture medium); type: cell-based, human; conditions: vs untreated
Protocol: as §1
Fibroblasts cultured for 72 h in 24 well-plates in the presence or absence of bicalutamide, (S)-bicalutamide, (S)-bicalutamide analogs or (R)-bicalutamide at different concentrations in triplicate (10 nmol/L, 100 nmol/L, 1 μmol/L, 10 μmol/L, 50 μmol/L and 100 μmol/L), were rinsed with physiological saline. The cells were lysed by using 3 freeze-thaw cycles. Then protein concentration was determined by using the Lowry method. Protein lysates (10 μg) were seeded in 96-well plates and the enzymatic activity of the enzyme involved in each disease was determined in triplicate by means of fluorimetric artificial substrates: 4-methylumbelliferyl-α-N-sulphoglucosaminide for Sanfilippo A, 4-methylumbelliferyl-2-acetamido-2 deoxy-α-D-glucopyranoside for Sanfilippo B, 4-methylumbelliferyl-α-L-iduronide for Hurler, 4-methylumbelliferyl-N-acetyl-β-D-glucosaminide for Tay-sachs, 4-methylumbelliferyl-β-D-glucopyranoside for Gaucher, 4-methylumbelliferyl-α-Galactopiranosid for Fabry disease, and 6-hexadecanoylamino-4-methylumbelliferyl-P-colline for Niemann-Pick type AB. The activity of the enzyme β-hexosaminidase was assayed by using 4-methylumbelliferyl-2 acetamido-2 deoxy-β-D-glucopyranoside as artificial substrate [Annunziata et al., Study of influence of sex and age on human serum lysosomal enzymes by using 4-methylumbelliferyl substrates. Clin. Chim. Acta.
Lysosomal exocytosis was monitorized by measuring the enzymatic activity of the lysosomal enzyme β-hexosaminidase in the culture medium [Xu M, et al, δ-Tocopherol reduces lipid accumulation in Niemann-Pick type C1 and Wolman cholesterol storage disorders. […] The fibroblasts were previously treated with different concentrations of bicalutamide, (S)-bicalutamide or (R)-bicalutamide (10 nmol/L, 100 nmol/L, 1 μmol/L, 10 μmol/L, 50 μmol/L and 100 μmol/L) in triplicate in 24-well plates. At 0, 24, 48 and 72 hours, 30 μL of culture medium was aliquoted for the subsequent β-hexosaminidase activity assay.
Fibroblasts from two patients affected by Sanfilippo B and Hurler diseases were treated with different concentrations of bicalutamide (racemic mixture at increasing concentrations of 0.01, 0.1, 1, 10 and 100 μM). And the increase in lysosomal exocytosis was determined by analyzing the enzymatic activity of the lysosomal enzyme β-hexosaminidase in the culture medium.
Fibroblasts from thirteen patients affected by different lysosomal storage diseases (four Sanfilippo B disease patients with different genotypes, three Sanfilippo A disease patients with different genotypes, two Tay-Sachs disease patients with the same genotype, one Gaucher disease patient, one Niemann-pick type A/B disease patient, one Hurler disease patient, and one Fabry disease patient) were independently treated with different concentrations of (R)- and (S)-bicalutamide (50 and 100 μM) for 72 hours.

**Q.** Which “Decrease of GAGs (%)” value ([1]; Table 2 patient 1, Sanfilippo B fibroblasts, 10 nM) does the source give for `CC(O)(CS(=O)(=O)c1ccc(F)cc1)C(=O)Nc1ccc(C#N)c(C(F)(F)F)c1` (racemic) [Racemic Bicalutamide] here?
**A.** 17%

**Q.** What about the “Decrease of GAGs (%)” value ([1]; Table 2 patient 1, Sanfilippo B fibroblasts, 100 nM) of the same compound?
**A.** 25%

**Q.** And the “Decrease of GAGs (%)” value ([1]; Table 2 patient 1, Sanfilippo B fibroblasts, 1 μM)?
**A.** 17%

**Q.** And the “Decrease of GAGs (%)” value ([1]; Table 2 patient 1, Sanfilippo B fibroblasts, 10 μM)?
**A.** 22* %

**Q.** What about the “Decrease of GAGs (%)” value ([1]; Table 2 patient 1, Sanfilippo B fibroblasts, 100 μM) of the same compound?
**A.** 54* %

**Q.** What about the “Decrease of GAGs (%)” value ([1]; Table 2 patient 2, Sanfilippo B fibroblasts, 10 nM) of the same compound?
**A.** 0%

**Q.** What about the “Decrease of GAGs (%)” value ([1]; Table 2 patient 2, Sanfilippo B fibroblasts, 100 nM) of the same compound?
**A.** 16%

**Q.** And the “Decrease of GAGs (%)” value ([1]; Table 2 patient 2, Sanfilippo B fibroblasts, 1 μM)?
**A.** 0%

**Q.** What about the “Decrease of GAGs (%)” value ([1]; Table 2 patient 2, Sanfilippo B fibroblasts, 10 μM) of the same compound?
**A.** 0%

**Q.** And the “Decrease of GAGs (%)” value ([1]; Table 2 patient 2, Sanfilippo B fibroblasts, 100 μM)?
**A.** 20%

**Q.** And the “Decrease of GAGs (%)” value ([1]; Table 2 patient 3, Sanfilippo B fibroblasts, 10 nM)?
**A.** 53%

**Q.** And the “Decrease of GAGs (%)” value ([1]; Table 2 patient 3, Sanfilippo B fibroblasts, 100 nM)?
**A.** 13%

**Q.** What about the “Decrease of GAGs (%)” value ([1]; Table 2 patient 3, Sanfilippo B fibroblasts, 1 μM) of the same compound?
**A.** 33%

**Q.** What about the “Decrease of GAGs (%)” value ([1]; Table 2 patient 3, Sanfilippo B fibroblasts, 10 μM) of the same compound?
**A.** 33%

**Q.** And the “Decrease of GAGs (%)” value ([1]; Table 2 patient 3, Sanfilippo B fibroblasts, 100 μM)?
**A.** 0%

**Q.** What about the “Decrease of GAGs (%)” value ([1]; Table 2 patient 4, Hurler fibroblasts, 10 nM) of the same compound?
**A.** 0%

**Q.** What about the “Decrease of GAGs (%)” value ([1]; Table 2 patient 4, Hurler fibroblasts, 100 nM) of the same compound?
**A.** 0%

**Q.** And the “Decrease of GAGs (%)” value ([1]; Table 2 patient 4, Hurler fibroblasts, 1 μM)?
**A.** 0%

**Q.** What about the “Decrease of GAGs (%)” value ([1]; Table 2 patient 4, Hurler fibroblasts, 10 μM) of the same compound?
**A.** 0%

**Q.** What about the “Decrease of GAGs (%)” value ([1]; Table 2 patient 4, Hurler fibroblasts, 100 μM) of the same compound?
**A.** 0%

**Q.** And the “Decrease of GAGs (%)” value ([1]; Table 2 patient 5, Control fibroblasts, 10 nM)?
**A.** 0%

**Q.** What about the “Decrease of GAGs (%)” value ([1]; Table 2 patient 5, Control fibroblasts, 100 nM) of the same compound?
**A.** 0%

**Q.** And the “Decrease of GAGs (%)” value ([1]; Table 2 patient 5, Control fibroblasts, 1 μM)?
**A.** 0%

**Q.** And the “Decrease of GAGs (%)” value ([1]; Table 2 patient 5, Control fibroblasts, 10 μM)?
**A.** 0%

**Q.** What about the “Decrease of GAGs (%)” value ([1]; Table 2 patient 5, Control fibroblasts, 100 μM) of the same compound?
**A.** 0%

**Q.** And the “Increase in lysosomal Exocytosis (%)” value ([2]; Table 1 patient 1, Sanfilippo B fibroblasts, 10 nM)?
**A.** 31* %

**Q.** And the “Increase in lysosomal Exocytosis (%)” value ([2]; Table 1 patient 1, Sanfilippo B fibroblasts, 100 nM)?
**A.** 23* %

**Q.** What about the “Increase in lysosomal Exocytosis (%)” value ([2]; Table 1 patient 1, Sanfilippo B fibroblasts, 1 μM) of the same compound?
**A.** 49%

**Q.** What about the “Increase in lysosomal Exocytosis (%)” value ([2]; Table 1 patient 1, Sanfilippo B fibroblasts, 10 μM) of the same compound?
**A.** 45%

**Q.** And the “Increase in lysosomal Exocytosis (%)” value ([2]; Table 1 patient 1, Sanfilippo B fibroblasts, 100 μM)?
**A.** 100* %

**Q.** And the “Increase in lysosomal Exocytosis (%)” value ([2]; Table 1 patient 2, Hurler fibroblasts, 10 nM)?
**A.** 14%

**Q.** And the “Increase in lysosomal Exocytosis (%)” value ([2]; Table 1 patient 2, Hurler fibroblasts, 100 nM)?
**A.** 13%

**Q.** And the “Increase in lysosomal Exocytosis (%)” value ([2]; Table 1 patient 2, Hurler fibroblasts, 1 μM)?
**A.** 9%

**Q.** And the “Increase in lysosomal Exocytosis (%)” value ([2]; Table 1 patient 2, Hurler fibroblasts, 10 μM)?
**A.** 3%

**Q.** And the “Increase in lysosomal Exocytosis (%)” value ([2]; Table 1 patient 2, Hurler fibroblasts, 100 μM)?
**A.** 8%

**Q.** And the “Increase in lysosomal Exocytosis (%)” value ([2]; Table 1 patient 3, Control fibroblasts, 10 nM)?
**A.** 0%

**Q.** What about the “Increase in lysosomal Exocytosis (%)” value ([2]; Table 1 patient 3, Control fibroblasts, 100 nM) of the same compound?
**A.** 27%

**Q.** And the “Increase in lysosomal Exocytosis (%)” value ([2]; Table 1 patient 3, Control fibroblasts, 1 μM)?
**A.** 13%

**Q.** What about the “Increase in lysosomal Exocytosis (%)” value ([2]; Table 1 patient 3, Control fibroblasts, 10 μM) of the same compound?
**A.** 12* %

**Q.** And the “Increase in lysosomal Exocytosis (%)” value ([2]; Table 1 patient 3, Control fibroblasts, 100 μM)?
**A.** 13* %
